# In publication PMC9898036, “VIP152 is a selective CDK9 inhibitor with pre-clinical in vitro and in vivo efficacy in chronic lymphocytic leukemia” (Leukemia, 2022):
# Key:
# Assay in all cases: DiscoverX KINOMEscan kinase profiling (468 assays)
# Assay type in all cases: binding
# human kinome [1] = target: human kinome (Homo sapiens, UniProt O15146); settings: MUSK; 100 nM; read-out: Percent Control
# Summary of the method: (§1)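 VIP152 was run in DMSO, alongside a DMSO control. Readout was qPCR of DNA-tagged kinase still bound to bead-immobilized biotinylated kinase ligands after compound competition.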
# human kinome [2] = target: human kinome (Homo sapiens, UniProt O43318); settings: kinase TAK1 (Entrez MAP3K7); compound concentration 1000 nM; read-out: Percent Control
# Summary of the method: as §1
# human kinome [3] = target: human kinome (Homo sapiens, UniProt O60674); settings: JAK2(JH1domain-catalytic); 100 nM; read-out: Percent Control
# Summary of the method: as §1
# human kinome [4] = target: human kinome (Homo sapiens, UniProt P00533, L858R/T790M); settings: EGFR(L858R,T790M); 100 nM; read-out: Percent Control
# Summary of the method: as §1
# human kinome [5] = target: human kinome (Homo sapiens, UniProt P22607, G697C); settings: FGFR3(G697C); 100 nM; read-out: Percent Control
# Summary of the method: as §1
# human kinome [6] = target: human kinome (Homo sapiens, UniProt P23443); settings: kinase S6K1 (Entrez RPS6KB1); compound concentration 1000 nM; read-out: Percent Control
# Summary of the method: as §1
# human kinome [7] = target: human kinome (Homo sapiens, UniProt P24941); settings: CDK2; 100 nM; read-out: Percent Control
# Summary of the method: as §1
# human kinome [8] = target: human kinome (Homo sapiens, UniProt P25098); settings: GRK2 (Entrez ADRBK1); 100 nM; read-out: Percent Control
# Summary of the method: as §1
# human kinome [9] = target: human kinome (Homo sapiens, UniProt P27361); settings: ERK1 (Entrez MAPK3); 100 nM; read-out: Percent Control
# Summary of the method: as §1
# human kinome [10] = target: human kinome (Homo sapiens, UniProt P30291); settings: kinase WEE1 (Entrez WEE1); compound concentration 1000 nM; read-out: Percent Control
# Summary of the method: as §1
# human kinome [11] = target: human kinome (Homo sapiens, UniProt P42345); settings: MTOR; 100 nM; read-out: Percent Control
# Summary of the method: as §1
# human kinome [12] = target: human kinome (Homo sapiens, UniProt Q06187); settings: BTK; 100 nM; read-out: Percent Control
# Summary of the method: as §1
# human kinome [13] = target: human kinome (Homo sapiens, UniProt Q08881); settings: ITK; 100 nM; read-out: Percent Control
# Summary of the method: as §1
# human kinome [14] = target: human kinome (Homo sapiens, UniProt Q12852); settings: DLK (Entrez MAP3K12); 100 nM; read-out: Percent Control
# Summary of the method: as §1
# human kinome [15] = target: human kinome (Homo sapiens, UniProt Q13043); settings: MST1 (Entrez STK4); 100 nM; read-out: Percent Control
# Summary of the method: as §1
# human kinome [16] = target: human kinome (Homo sapiens, UniProt Q13882); settings: BRK (Entrez PTK6); 100 nM; read-out: Percent Control
# Summary of the method: as §1
# human kinome [17] = target: human kinome (Homo sapiens, UniProt Q16566); settings: CAMK4; 100 nM; read-out: Percent Control
# Summary of the method: as §1
# human kinome [18] = target: human kinome (Homo sapiens, UniProt Q16659); settings: ERK3 (Entrez MAPK6); 100 nM; read-out: Percent Control
# Summary of the method: as §1
# human kinome [19] = target: human kinome (Homo sapiens, UniProt Q52WX2); settings: kinase SBK1 (Entrez SBK1); compound concentration 1000 nM; read-out: Percent Control
# Summary of the method: as §1
# human kinome [20] = target: human kinome (Homo sapiens, UniProt Q6DT37); settings: DMPK2 (Entrez CDC42BPG); 100 nM; read-out: Percent Control
# Summary of the method: as §1
# human kinome [21] = target: human kinome (Homo sapiens, UniProt Q6ZN16); settings: MAP3K15; 100 nM; read-out: Percent Control
# Summary of the method: as §1
# human kinome [22] = target: human kinome (Homo sapiens, UniProt Q8IVW4); settings: CDKL3; 100 nM; read-out: Percent Control
# Summary of the method: as §1
# human kinome [23] = target: human kinome (Homo sapiens, UniProt Q8NI60); settings: ADCK3 (Entrez CABC1); 100 nM; read-out: Percent Control
# Summary of the method: as §1
# human kinome [24] = target: human kinome (Homo sapiens, UniProt Q8WTQ7); settings: GRK7; 100 nM; read-out: Percent Control
# Summary of the method: as §1
# human kinome [25] = target: human kinome (Homo sapiens, UniProt Q9BVS4); settings: kinase RIOK2 (Entrez RIOK2); compound concentration 1000 nM; read-out: Percent Control
# Summary of the method: as §1
# human kinome [26] = target: human kinome (Homo sapiens, UniProt Q9H2X6); settings: HIPK2; 100 nM; read-out: Percent Control
# Summary of the method: as §1
# human kinome [27] = target: human kinome (Homo sapiens, UniProt Q9H4A3); settings: kinase WNK1 (Entrez WNK1); compound concentration 1000 nM; read-out: Percent Control
# Summary of the method: as §1
# human kinome [28] = target: human kinome (Homo sapiens, UniProt Q9UEW8); settings: kinase STK39 (Entrez STK39); compound concentration 1000 nM; read-out: Percent Control
# Summary of the method: as §1
# human kinome [29] = target: human kinome (Homo sapiens, UniProt Q9UIK4); settings: DAPK2; 100 nM; read-out: Percent Control
# Summary of the method: as §1
# human kinome [30] = settings: for Percent Control: 100 nM
# Summary of the method: as §1
# Chain of human kinome (Homo sapiens, UniProt P23443) (P23443 whole entry): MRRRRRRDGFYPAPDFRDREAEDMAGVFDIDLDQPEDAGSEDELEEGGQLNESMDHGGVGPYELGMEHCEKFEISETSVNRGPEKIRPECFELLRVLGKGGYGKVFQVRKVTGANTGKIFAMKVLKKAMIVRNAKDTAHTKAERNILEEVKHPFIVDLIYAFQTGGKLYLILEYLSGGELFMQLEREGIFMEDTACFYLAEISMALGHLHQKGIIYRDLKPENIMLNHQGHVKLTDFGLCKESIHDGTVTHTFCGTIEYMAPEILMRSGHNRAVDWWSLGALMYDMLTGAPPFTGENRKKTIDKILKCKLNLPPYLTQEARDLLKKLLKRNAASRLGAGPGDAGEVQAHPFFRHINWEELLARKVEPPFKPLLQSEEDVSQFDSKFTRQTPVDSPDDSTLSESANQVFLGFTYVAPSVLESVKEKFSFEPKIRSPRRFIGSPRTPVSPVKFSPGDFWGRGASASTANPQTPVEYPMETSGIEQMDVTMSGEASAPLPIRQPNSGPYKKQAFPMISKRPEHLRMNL
# Chain of human kinome (Homo sapiens, UniProt P27361) (P27361 whole entry): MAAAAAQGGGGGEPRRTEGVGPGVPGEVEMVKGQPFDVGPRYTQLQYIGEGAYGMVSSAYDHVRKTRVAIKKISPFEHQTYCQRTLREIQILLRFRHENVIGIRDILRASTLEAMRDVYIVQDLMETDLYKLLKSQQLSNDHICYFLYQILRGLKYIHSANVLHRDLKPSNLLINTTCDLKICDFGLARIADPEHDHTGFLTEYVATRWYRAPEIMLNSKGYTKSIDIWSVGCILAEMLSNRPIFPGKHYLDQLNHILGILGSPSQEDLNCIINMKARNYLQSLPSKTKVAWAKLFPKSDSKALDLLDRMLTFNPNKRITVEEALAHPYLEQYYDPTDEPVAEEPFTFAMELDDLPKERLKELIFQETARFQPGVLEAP
# Chain of human kinome (Homo sapiens, UniProt Q8IVW4) (Q8IVW4 whole entry): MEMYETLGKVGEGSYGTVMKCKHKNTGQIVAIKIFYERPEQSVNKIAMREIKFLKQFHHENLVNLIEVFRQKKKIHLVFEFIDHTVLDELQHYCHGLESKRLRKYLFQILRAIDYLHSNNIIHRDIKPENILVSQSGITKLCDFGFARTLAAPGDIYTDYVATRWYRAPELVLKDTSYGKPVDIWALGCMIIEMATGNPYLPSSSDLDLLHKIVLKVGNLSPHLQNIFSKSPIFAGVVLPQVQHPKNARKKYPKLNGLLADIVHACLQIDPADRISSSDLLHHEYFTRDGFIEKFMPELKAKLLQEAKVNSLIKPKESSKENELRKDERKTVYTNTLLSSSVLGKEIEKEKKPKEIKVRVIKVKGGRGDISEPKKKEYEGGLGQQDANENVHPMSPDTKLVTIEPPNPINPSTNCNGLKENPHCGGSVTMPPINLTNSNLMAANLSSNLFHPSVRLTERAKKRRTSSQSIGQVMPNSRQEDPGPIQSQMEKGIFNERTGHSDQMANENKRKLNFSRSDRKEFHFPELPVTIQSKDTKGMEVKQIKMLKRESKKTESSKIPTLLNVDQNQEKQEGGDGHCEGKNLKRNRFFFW
# Chain of human kinome (Homo sapiens, UniProt Q8WTQ7) (Q8WTQ7 whole entry): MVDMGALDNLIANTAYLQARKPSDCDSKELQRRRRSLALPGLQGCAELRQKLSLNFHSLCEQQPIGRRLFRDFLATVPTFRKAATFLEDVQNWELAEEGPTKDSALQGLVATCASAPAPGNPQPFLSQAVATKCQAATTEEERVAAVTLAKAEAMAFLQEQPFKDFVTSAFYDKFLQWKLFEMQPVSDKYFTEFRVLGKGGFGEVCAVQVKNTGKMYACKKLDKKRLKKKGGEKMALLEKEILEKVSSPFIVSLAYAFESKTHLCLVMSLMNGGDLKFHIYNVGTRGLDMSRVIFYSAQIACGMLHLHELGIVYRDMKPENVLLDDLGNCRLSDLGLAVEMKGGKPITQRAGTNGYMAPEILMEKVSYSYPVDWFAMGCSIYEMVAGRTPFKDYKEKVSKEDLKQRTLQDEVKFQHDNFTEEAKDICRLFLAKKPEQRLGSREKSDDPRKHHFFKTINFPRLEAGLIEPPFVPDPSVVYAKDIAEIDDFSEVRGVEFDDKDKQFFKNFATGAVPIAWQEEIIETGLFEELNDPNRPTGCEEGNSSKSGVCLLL
# Chain of human kinome (Homo sapiens, UniProt Q9UIK4) (Q9UIK4 whole entry): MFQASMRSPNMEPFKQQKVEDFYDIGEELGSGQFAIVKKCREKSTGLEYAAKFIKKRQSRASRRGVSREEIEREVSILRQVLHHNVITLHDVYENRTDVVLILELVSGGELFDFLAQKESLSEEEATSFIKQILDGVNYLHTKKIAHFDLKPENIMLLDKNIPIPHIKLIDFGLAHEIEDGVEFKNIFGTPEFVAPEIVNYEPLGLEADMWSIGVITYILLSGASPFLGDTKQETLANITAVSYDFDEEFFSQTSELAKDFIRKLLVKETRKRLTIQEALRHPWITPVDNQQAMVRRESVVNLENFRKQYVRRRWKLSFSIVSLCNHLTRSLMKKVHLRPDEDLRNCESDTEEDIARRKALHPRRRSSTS
# Chain of human kinome (Homo sapiens, UniProt Q13043) (Q13043 whole entry): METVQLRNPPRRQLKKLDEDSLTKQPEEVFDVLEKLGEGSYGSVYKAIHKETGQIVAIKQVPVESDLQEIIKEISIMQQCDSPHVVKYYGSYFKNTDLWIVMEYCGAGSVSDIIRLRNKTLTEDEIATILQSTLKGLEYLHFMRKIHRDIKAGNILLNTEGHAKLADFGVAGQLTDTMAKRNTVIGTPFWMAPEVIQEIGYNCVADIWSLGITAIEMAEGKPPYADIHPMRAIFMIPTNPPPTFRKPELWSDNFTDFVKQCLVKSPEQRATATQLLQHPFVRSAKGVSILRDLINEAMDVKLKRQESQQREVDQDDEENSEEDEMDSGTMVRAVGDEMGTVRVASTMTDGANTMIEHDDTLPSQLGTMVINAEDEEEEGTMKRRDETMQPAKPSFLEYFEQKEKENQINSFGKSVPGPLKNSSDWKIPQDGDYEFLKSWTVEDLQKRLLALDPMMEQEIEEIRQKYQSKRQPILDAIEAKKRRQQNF
# Chain of human kinome (Homo sapiens, UniProt Q9H2X6) (Q9H2X6 whole entry): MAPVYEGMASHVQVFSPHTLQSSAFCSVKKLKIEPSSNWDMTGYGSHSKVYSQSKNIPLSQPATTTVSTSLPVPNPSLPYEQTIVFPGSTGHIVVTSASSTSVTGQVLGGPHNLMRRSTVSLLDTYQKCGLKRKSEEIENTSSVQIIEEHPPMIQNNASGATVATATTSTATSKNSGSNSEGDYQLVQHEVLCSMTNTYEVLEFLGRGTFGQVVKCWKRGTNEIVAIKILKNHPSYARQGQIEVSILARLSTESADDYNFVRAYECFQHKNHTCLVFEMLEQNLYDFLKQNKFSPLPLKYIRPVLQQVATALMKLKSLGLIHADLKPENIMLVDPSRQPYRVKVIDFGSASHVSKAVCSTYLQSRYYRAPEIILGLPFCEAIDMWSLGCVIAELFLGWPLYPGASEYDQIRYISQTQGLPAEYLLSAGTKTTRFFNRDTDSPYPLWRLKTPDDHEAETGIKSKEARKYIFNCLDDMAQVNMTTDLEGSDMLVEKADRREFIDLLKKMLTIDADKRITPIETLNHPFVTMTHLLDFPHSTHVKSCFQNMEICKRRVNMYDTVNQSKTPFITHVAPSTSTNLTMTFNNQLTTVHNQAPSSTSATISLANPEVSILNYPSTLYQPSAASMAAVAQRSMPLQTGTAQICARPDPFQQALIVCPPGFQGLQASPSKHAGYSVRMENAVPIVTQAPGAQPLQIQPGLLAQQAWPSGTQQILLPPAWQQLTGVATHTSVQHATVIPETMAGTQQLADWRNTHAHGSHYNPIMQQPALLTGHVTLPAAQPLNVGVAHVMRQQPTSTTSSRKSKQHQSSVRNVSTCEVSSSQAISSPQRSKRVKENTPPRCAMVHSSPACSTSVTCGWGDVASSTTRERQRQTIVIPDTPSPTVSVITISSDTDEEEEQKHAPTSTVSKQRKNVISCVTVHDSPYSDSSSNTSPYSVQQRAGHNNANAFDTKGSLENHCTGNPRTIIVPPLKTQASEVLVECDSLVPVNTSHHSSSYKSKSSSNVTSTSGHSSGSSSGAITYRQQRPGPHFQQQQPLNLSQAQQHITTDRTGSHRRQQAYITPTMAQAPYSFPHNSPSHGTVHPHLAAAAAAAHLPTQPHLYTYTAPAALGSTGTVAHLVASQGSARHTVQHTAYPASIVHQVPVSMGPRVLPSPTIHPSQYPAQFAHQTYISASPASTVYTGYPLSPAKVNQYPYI
# Chain of human kinome (Homo sapiens, UniProt Q9BVS4) (Q9BVS4 whole entry): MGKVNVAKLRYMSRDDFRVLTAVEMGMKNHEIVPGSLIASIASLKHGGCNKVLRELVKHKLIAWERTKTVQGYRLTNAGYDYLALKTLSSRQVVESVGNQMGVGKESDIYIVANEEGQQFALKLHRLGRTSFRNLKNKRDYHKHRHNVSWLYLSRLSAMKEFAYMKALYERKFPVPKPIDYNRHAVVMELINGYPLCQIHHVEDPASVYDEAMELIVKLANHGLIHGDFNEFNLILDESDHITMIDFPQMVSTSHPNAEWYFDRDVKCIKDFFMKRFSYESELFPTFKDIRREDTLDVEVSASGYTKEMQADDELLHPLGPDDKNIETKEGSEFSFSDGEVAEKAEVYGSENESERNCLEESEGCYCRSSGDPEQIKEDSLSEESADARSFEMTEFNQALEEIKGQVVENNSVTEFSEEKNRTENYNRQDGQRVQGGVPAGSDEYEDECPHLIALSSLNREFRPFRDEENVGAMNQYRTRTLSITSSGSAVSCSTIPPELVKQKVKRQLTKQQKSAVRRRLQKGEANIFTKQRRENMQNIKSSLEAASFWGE
smiles,measurement,setting,value
COc1cc(F)ccc1-c1cc(Nc2cc(CS(C)(=N)=O)ccn2)ncc1F (stereo not drawn) [VIP152],remaining binding at 0.1 µM,human kinome [1],99%
same,remaining binding at 1 µM,human kinome [2],65%
same,remaining binding at 0.1 µM,human kinome [3],100%
same,remaining binding at 0.1 µM,human kinome [4],93%
same,remaining binding at 0.1 µM,human kinome [5],100%
same,remaining binding at 1 µM,human kinome [6],100%
same,remaining binding at 0.1 µM,human kinome [7],100%
same,remaining binding at 0.1 µM,human kinome [8],100%
same,remaining binding at 0.1 µM,human kinome [9],100%
same,remaining binding at 1 µM,human kinome [10],86%
same,remaining binding at 0.1 µM,human kinome [11],59%
same,remaining binding at 0.1 µM,human kinome [12],100%
same,remaining binding at 0.1 µM,human kinome [13],100%
same,remaining binding at 0.1 µM,human kinome [14],100%
same,remaining binding at 0.1 µM,human kinome [15],99%
same,remaining binding at 0.1 µM,human kinome [16],100%
same,remaining binding at 0.1 µM,human kinome [17],100%
same,remaining binding at 0.1 µM,human kinome [18],100%
same,remaining binding at 1 µM,human kinome [19],100%
same,remaining binding at 0.1 µM,human kinome [20],100%
same,remaining binding at 0.1 µM,human kinome [21],100%
same,remaining binding at 0.1 µM,human kinome [22],100%
same,remaining binding at 0.1 µM,human kinome [23],100%
same,remaining binding at 0.1 µM,human kinome [24],100%
same,remaining binding at 1 µM,human kinome [25],77%
same,remaining binding at 0.1 µM,human kinome [26],89%
same,remaining binding at 1 µM,human kinome [27],90%
same,remaining binding at 1 µM,human kinome [28],92%
same,remaining binding at 0.1 µM,human kinome [29],100%
same,Interactions Mapped,"human kinome [30]; @100nM, 468 Assays Tested",4
same,Percent Control,"human kinome [30]; EGFR(L747-E749del, A750P)",100%
same,Percent Control,"human kinome [30]; EGFR(L747-S752del, P753S)",93%
same,Percent Control,"human kinome [30]; EGFR(L747-T751del,Sins)",100%
same,Percent Control,human kinome [30]; FLT3(ITD),100%
same,Percent Control,"human kinome [30]; FLT3(ITD,D835V)",100%
same,Percent Control,"human kinome [30]; FLT3(ITD,F691L)",99%
